# Legend:
# C. albicans ATCC 10231 [1] = assay: Adhesion of C. albicans to glass surface; format: cell-based, Candida albicans; conditions: 640 µM
# Method: The effect of gemini QAS on the adhesion of C. albicans ATCC 10231 was determined using a modification of the method of Obłąk et al.. […] After incubation, the culture was centrifuged (1000 rcf, 5 min), and the resulting pellet was suspended in PBS (pH 7.4) until OD = 0.8 (λ = 590 nm). • In the case of testing the polystyrene surface, 100 µl of tested gemini QAS at concentrations of 20–1280 µM was added to the wells of a 96-well titration plate, incubated for 2 h at 37 °C, rinsed with sterile distilled water, and then spotted with 100 µl of the obtained culture and incubated at 37 °C for 4 h. After this time, the culture was removed, the plates were rinsed with sterile distilled water and placed in an oven (60 °C, 20 min). Then, crystal violet (0.1%) was added to the wells of the titration plate, stained for 5 min and rinsed with sterile distilled water until all traces of violet were removed from the rinsed water. Then the washing mixture (1% SDS, 50 mmol HCl, 100% isopropanol) was added. The absorbance of the samples was read using a spectrophotometer (BioTek 800 TS Absorbance Reader) at λ = 590 nm. […] Next, the washing mixture (1% SDS, 50 mmol HCl, 100% isopropanol) was added and the absorbance of the samples was read using a spectrophotometer (BioTek 800 TS Absorbance Reader) at λ = 590 nm. […] After this time, the colonies growing on the plates were counted. […]
# sheep erythrocytes = assay: Hemolysis test; format: cell-based; conditions: 1.5 h, 37 °C; for Concentration up to which no hemolysis was caused: sheep erythrocytes; for Hemolytic effect on sheep erythrocytes: tested 2.5–1280 µM
# Method: The hemolysis test was performed based on the Obłąk et al.[80] method with modification. Sheep blood (5 cm^3) was centrifuged (699 rcf, 15 min), washed several times with PBS buffer (pH 7.4), and suspended in PBS. […] The positive control was 1% SDS and the negative control was PBS. The plates were incubated for 1.5 h at 37 °C. After incubation, the plates were centrifuged (699 rcf, 15 min) and the supernatant was applied to a new titration plate. Absorbance was measured at λ = 540 nm (BioTek 800 TS Absorbance Reader). The experiment was performed in 4 repetitions.
# C. albicans ATCC 10231 [2] = assay: Adhesion of C. albicans to stainless steel surface; format: cell-based, Candida albicans; conditions: concentration not stated (tested 80–640 µM)
# Method: The effect of gemini QAS on the adhesion of C. albicans ATCC 10231 was determined using a modification of the method of Obłąk et al.. […] After incubation, the culture was centrifuged (1000 rcf, 5 min), and the resulting pellet was suspended in PBS (pH 7.4) until OD = 0.8 (λ = 590 nm). • In the case of testing the polystyrene surface, 100 µl of tested gemini QAS at concentrations of 20–1280 µM was added to the wells of a 96-well titration plate, incubated for 2 h at 37 °C, rinsed with sterile distilled water, and then spotted with 100 µl of the obtained culture and incubated at 37 °C for 4 h. After this time, the culture was removed, the plates were rinsed with sterile distilled water and placed in an oven (60 °C, 20 min). Then, crystal violet (0.1%) was added to the wells of the titration plate, stained for 5 min and rinsed with sterile distilled water until all traces of violet were removed from the rinsed water. Then the washing mixture (1% SDS, 50 mmol HCl, 100% isopropanol) was added. The absorbance of the samples was read using a spectrophotometer (BioTek 800 TS Absorbance Reader) at λ = 590 nm. The positive control was the culture wells to which the tested gemini QAS were not added, and the negative control was the medium. The experiment was performed in 3 repetitions. • When the tested surface was stainless steel (round washers Ø 0.4 cm), silicone (0.5 cm long fragments of Foley catheters) or glass (1 cm^2 coverslips), the tested materials were incubated for 2 h at 37 °C with shaking (100 rpm) in the presence of the tested gemini QAS at concentrations of 80–640 µM. Then, the materials were rinsed with sterile distilled water, transferred to tubes with culture and incubated for 4 h at 37 °C with shaking (100 rpm). After incubation, the materials were rinsed with sterile distilled water. […] Next, the washing mixture (1% SDS, 50 mmol HCl, 100% isopropanol) was added and the absorbance of the samples was read using a spectrophotometer (BioTek 800 TS Absorbance Reader) at λ = 590 nm. […] After this time, the colonies growing on the plates were counted. […]
# [3] = system: C. albicans ATCC 10231 biofilm; assay: Biofilm viability (LIVE/DEAD, confocal microscopy); format: cell-based, Candida albicans; conditions: glass surface, SYTO 9 / propidium iodide
# Method: The viability of the biofilm formed by C. albicans ATCC 10231 cells was determined using the Filmtracer LIVE/DEAD Biofilm Viability Kit (Invitrogen).
# The C. albicans culture was incubated in YPG medium at 37 °C for 18 h. After incubation, the culture was centrifuged (1000 rcf, 5 min), and the resulting pellet was suspended in PBS (pH 7.4) to obtain an OD = 1.5 (λ = 590 nm). 100 µl of C. albicans cell suspension was placed into the wells of the chamber slide plate and incubated for 24 h at 37 °C. After this time, the culture was removed and the plate was rinsed with sterile mQ water. Then, 200 µl of selected tested surfactants in appropriate concentrations was added to each well and incubated for 4 h. After incubation, the plate was rinsed with PBS, 100 µl of the LIVE/DEAD probe was added, and it was incubated for 30 min in the dark. After this time, the probe was removed and the wells were rinsed twice with PBS. Then, 100 µl of 4% formaldehyde in PBS (pH 7.0) was added and it was incubated for 30 min in the dark. Formaldehyde was removed and the wells were rinsed twice with PBS. After peeling off the walls of the plate, a drop of 50% glycerol in PBS was placed on each field and a glass slide was placed on it. The viability of the biofilm formed by C. albicans cells was imaged using a confocal microscope. The negative control was PBS.
Structure (SMILES),Reduction of adhesion of C. albicans cells to glass (C. albicans ATCC 10231 [1]),Concentration up to which no hemolysis was caused (sheep erythrocytes) [µM],Inhibition of adhesion of C. albicans to stainless steel (C. albicans ATCC 10231 [2]),Hemolytic effect on sheep erythrocytes (sheep erythrocytes),Hemolytic effect on sheep erythrocytes (sheep erythrocytes; listed as dimethylcarbonate with 12-carbon alkyl chains),Impact on survival of C. albicans biofilm (membrane integrity) [3]
CCCCCCCCCCCC(=O)N(CCCN(CCC[N+](C)(C)C)C(=O)CCCCCCCCCCC)CCC[N+](C)(C)C [2xC12BrG3],approximately 80%,≤ 20,,,,
"CCCCCCCCCCCC(=O)N(CCCN(CCC[N+](C)(C)C)C(=O)CCCCCCCCCCC)CCC[N+](C)(C)C [2xC12MeCO3G3, dimethyl{{3-[N-(3-{N-[3-(dimethylammonium)propyl]dodecylamido}propyl}dodecylamido}propyl}}ammonium dimethylcarbonate]",,,approximately 60%,did not cause hemolysis,no hemolytic effect,
CCCCCCCCCCCCCCCC(=O)N(CCCN(CCC[N+](C)(C)C)C(=O)CCCCCCCCCCCCCCC)CCC[N+](C)(C)C [2xC16BrG3],,≤ 80,approximately 60%,,,strong impact
CCCCCCCCCCCCCCCC(=O)N(CCCN(CCC[N+](C)(C)C)C(=O)CCCCCCCCCCCCCCC)CCC[N+](C)(C)C [2xC16LaG3],,≤ 40,,,,
"CCCCCCCCCCCCCCCC(=O)N(CCCN(CCC[N+](C)(C)C)C(=O)CCCCCCCCCCCCCCC)CCC[N+](C)(C)C [2xC16MeCO3G3, dimethyl{{3-[N-(3-{N-[3-(dimethylammonium)propyl]hexadecylamido}propyl}hexadecylamido}propyl}}ammonium dimethylcarbonate]",,≤ 80,approximately 50%,,,

# Reference: paper PMC11187217, “Anti-adhesive, anti-biofilm and fungicidal action of newly synthesized gemini quaternary ammonium salts” (Scientific Reports, 2024)
